Measured values taken from patent US12110279B2, “Triazolones, tetrazolones, and imidazolones, or their salts, and pharmaceutical compositions comprising the same” (Yuhan Corporation, priority 2021, dated 2024).
Structures can show the parent of a compound that is named as a salt. Where two headings read alike, the source gives them in different places.

Assays:
Format in all cases: biochemical
[1] = molecular target: T1, recombinant human DAO (diamine oxidase) (Homo sapiens, UniProt P19801); experiment: Amplex Red HRP-coupled amine oxidase activity evaluation, recombinant human DAO
T1 construct: purchased R&D systems
T1 sequence (P19801 20-751): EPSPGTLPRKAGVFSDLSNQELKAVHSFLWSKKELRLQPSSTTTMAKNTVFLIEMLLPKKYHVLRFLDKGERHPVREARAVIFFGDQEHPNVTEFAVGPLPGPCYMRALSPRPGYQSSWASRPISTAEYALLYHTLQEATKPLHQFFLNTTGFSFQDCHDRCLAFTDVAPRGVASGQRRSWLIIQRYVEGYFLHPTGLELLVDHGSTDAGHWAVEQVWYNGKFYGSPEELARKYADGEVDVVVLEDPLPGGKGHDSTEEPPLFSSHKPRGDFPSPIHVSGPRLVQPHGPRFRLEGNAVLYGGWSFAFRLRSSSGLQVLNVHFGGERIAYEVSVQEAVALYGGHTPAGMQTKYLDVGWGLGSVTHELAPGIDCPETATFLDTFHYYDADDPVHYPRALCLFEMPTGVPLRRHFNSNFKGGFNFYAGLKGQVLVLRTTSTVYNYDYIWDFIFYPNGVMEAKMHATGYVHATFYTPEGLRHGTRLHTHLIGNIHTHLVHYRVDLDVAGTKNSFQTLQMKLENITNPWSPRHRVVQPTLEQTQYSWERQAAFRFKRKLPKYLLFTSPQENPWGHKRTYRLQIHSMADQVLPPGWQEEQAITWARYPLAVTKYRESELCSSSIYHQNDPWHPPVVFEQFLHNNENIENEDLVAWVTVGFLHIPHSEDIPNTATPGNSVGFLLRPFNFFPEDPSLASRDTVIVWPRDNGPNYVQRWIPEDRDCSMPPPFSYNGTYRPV
Description: [The source words this procedure for another target and says it was used here with some conditions changed.] (§1) The compounds according to the present technology were evaluated in terms of activity on recombinant human VAP-1 (R&D systems) by measuring the level of hydrogen peroxide in horseradish peroxidase (HRP)-coupled reaction using Amplex Red Hydrogen Peroxide Assay Kit (Molecular Probes, Invitrogen, USA). The experiment was carried out at room temperature using benzylamine as a substrate. In the HRP-coupled reaction, hydrogen peroxide oxidation of 10-acetyl-3,7-dihydroxyphenoxazine (Amplex Red reagent) produces resorufin, which is a highly fluorescent compound. Briefly, the test compound was dissolved in dimethyl sulfoxide (DMSO) at a concentration of 20 mM. The dose-response assessment was made by 1:3 serial dilution in DMSO, thereby creating an 8-point curve. The concentration of the upper part was controlled according to the efficacy of the compounds, followed by dilution with a reaction buffer solution to obtain a final DMSO concentration of less than 1%. To each well of a 96 black well plate, human VAP-1 purified in 50 mM sodium phosphate buffer solution (pH7.4) was added. The test compounds dissolved in DMSO were incubated with the human VAP-1 enzymes at 37° C. for 30 minutes. After 30-minute incubation, each well was added with a reaction mixture containing 200 uM Amplex Red reagent prepared from 50 mM sodium phosphate buffer solution (pH 7.4), 1 mM benzylamine, and 1 U/mL HRP. Fluorescence intensity was measured at several time points during 1-2 hours using a microplate reader (Flexstation3, Molecular Devices) under the wavelength condition exciting at 544 nm and reading the emission at 590 nm. The inhibitory effect of the compounds was measured as a decrease (%) in the signal rate as compared to the control group without any inhibitor (only diluted DMSO). Data was fixed to a logistic model with four variables and IC50 value was calculated using GraphPad Prism program.

[2] = molecular target: T2, recombinant human VAP-1 (Homo sapiens, UniProt Q16853); experiment: Amplex Red HRP-coupled amine oxidase activity evaluation, recombinant human VAP-1; conditions: substrate 1 mM benzylamine; 30 min preincubation at 37° C.; read-out: Inhibitory Activity (IC50, nM) human VAP-1
T2 construct: purchased R&D systems
T2 sequence (Q16853 1-763): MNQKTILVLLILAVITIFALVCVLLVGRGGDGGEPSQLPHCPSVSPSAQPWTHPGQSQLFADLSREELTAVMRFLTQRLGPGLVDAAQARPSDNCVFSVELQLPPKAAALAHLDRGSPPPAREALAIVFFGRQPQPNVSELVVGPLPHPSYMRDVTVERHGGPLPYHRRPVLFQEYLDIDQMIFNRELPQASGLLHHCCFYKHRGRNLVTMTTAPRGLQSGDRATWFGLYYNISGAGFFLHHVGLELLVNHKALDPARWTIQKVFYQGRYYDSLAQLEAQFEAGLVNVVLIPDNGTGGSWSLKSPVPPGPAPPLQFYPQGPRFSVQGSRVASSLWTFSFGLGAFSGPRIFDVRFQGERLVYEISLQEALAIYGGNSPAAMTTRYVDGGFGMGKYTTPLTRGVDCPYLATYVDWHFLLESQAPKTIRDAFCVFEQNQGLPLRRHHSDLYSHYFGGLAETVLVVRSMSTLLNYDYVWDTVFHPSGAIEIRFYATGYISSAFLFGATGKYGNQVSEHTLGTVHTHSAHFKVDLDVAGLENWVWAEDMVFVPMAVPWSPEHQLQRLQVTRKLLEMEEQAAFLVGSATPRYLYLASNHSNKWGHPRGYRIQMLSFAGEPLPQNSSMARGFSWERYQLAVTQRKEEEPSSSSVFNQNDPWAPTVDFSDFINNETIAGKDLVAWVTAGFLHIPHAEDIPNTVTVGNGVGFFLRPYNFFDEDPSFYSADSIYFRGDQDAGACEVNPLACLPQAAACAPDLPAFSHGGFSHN
Description: as §1

[3] = molecular target: T3, recombinant human MAO-A (monoamine oxidase-A) (Homo sapiens, UniProt P21397); experiment: Amplex Red HRP-coupled amine oxidase activity evaluation, recombinant human MAO-A; conditions: substrate 0.5 mM tyramine; read-out: Inhibitory Activity (IC50, nM) MAO-A
T3 construct: purchased Sigma-Aldrich
T3 sequence (P21397 1-527): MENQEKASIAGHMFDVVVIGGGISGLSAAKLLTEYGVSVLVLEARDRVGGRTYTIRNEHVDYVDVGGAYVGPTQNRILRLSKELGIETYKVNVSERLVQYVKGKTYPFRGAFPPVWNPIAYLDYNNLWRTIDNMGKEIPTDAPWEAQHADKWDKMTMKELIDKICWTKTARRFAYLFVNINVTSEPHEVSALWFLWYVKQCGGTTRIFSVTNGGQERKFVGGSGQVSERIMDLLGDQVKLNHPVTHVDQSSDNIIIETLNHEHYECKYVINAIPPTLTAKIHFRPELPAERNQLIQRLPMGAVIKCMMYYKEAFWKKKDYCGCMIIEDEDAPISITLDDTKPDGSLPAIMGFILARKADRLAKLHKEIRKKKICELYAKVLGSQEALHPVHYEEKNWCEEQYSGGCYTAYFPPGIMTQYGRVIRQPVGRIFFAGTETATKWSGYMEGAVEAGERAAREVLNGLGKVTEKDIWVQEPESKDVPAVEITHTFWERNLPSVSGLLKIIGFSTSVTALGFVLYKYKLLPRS
Description: [The source words this procedure for another target and says it was used here with some conditions changed.] as §1

[4] = molecular target: T4, recombinant human MAO-B (monoamine oxidase-B) (Homo sapiens, UniProt P27338); experiment: Amplex Red HRP-coupled amine oxidase activity evaluation, recombinant human MAO-B; conditions: substrate 1 mM benzylamine; read-out: Inhibitory Activity (IC50, nM) MAO-B
T4 construct: purchased Sigma-Aldrich
T4 sequence (P27338 1-520): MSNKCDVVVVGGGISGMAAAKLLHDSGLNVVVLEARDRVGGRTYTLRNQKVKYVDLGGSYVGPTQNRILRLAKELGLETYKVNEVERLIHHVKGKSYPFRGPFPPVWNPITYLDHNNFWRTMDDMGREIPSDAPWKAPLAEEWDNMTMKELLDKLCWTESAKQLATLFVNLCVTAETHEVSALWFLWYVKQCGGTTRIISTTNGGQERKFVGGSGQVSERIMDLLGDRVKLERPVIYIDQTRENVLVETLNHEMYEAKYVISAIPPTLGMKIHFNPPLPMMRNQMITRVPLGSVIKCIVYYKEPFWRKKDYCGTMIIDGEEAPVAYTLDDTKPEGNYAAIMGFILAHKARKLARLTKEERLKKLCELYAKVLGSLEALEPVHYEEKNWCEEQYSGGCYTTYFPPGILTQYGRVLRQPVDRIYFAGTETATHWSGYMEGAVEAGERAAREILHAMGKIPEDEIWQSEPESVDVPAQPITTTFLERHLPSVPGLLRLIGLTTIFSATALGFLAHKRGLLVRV
Description: [The source words this procedure for another target and says it was used here with some conditions changed.] as §1

[5] = substrate 1 mM putrescine, read-out: Inhibitory Activity (IC50, nM) DAO

| SMILES | IC50 [1, 5] | IC50 [2] | IC50 [3] | IC50 [4] | IC50 [1] |
| --- | --- | --- | --- | --- | --- |
| CCn1cc(-c2ccc(C)c(-n3nnn(CC(CN)=C(F)F)c3=O)n2)ccc1=O [Example 24, 5-[6-[4-[2-(aminomethyl)-3,3-difluoro-allyl]-5-oxo-tetrazol-1-yl]-5-methyl-2-pyridyl]-1-ethyl-pyridin-2-one trifluoroacetate] | > 100000 nM | > 100 nM | > 100000 nM | > 100000 nM | – |
| Cc1ccc(-c2cc(C)c3c(c2)CCC(=O)N3)nc1-n1nnn(CC(CN)=C(F)F)c1=O [Example 25, 6-[6-[4-[2-(aminomethyl)-3,3-difluoro-allyl]-5-oxo-tetrazol-1-yl]-5-methyl-2-pyridyl]-8-methyl-3,4-dihydro-1H-quinolin-2-one trifluoroacetate] | – | 13 nM | > 100000 nM | > 100000 nM | 1110 nM |
| Cc1ccc(-c2ccc3c(c2)CCC(=O)N3C)nc1-n1nnn(CC(CN)=C(F)F)c1=O [Example 26, 6-[6-[4-[2-(aminomethyl)-3,3-difluoro-allyl]-5-oxo-tetrazol-1-yl]-5-methyl-2-pyridyl]-1-methyl-3,4-dihydroquinolin-2-one trifluoroacetate] | – | 19 nM | > 100000 nM | > 100000 nM | 4370 nM |
| CS(=O)(=O)c1ccc(-c2cccc(Cn3nnn(CC(CN)=C(F)F)c3=O)c2)cc1 [Example 27, 1-[2-(aminomethyl)-3,3-difluoro-allyl]-4-[[3-(4-methylsulfonylphenyl)phenyl]methyl]tetrazol-5-one trifluoroacetate] | 513 nM | 1 nM | > 100000 nM | 48400 nM | – |
| NCC(Cn1nnn(Cc2cccc(-c3ccc(N4CCNCC4)cc3)c2)c1=O)=C(F)F [Example 28, 1-[2-(aminomethyl)-3,3-difluoro-allyl]-4-[[3-(4-piperazin-1-ylphenyl)phenyl]methyl]tetrazol-5-one di-trifluoroacetate] | 5160 nM | 1.8 nM | 33000 nM | 35800 nM | – |
| CN(C)c1ccc(-c2cccc(Cn3nnn(CC(CN)=C(F)F)c3=O)c2)cn1 [Example 29, 1-[2-(aminomethyl)-3,3-difluoro-allyl]-4-[[3-[6-(dimethylamino)-3-pyridyl]phenyl]methyl]tetrazol-5-one trifluoroacetate] | 159 nM | 0.7 nM | 80100 nM | 14300 nM | – |
| NCC(Cn1nnn(Cc2cccc(-c3ccc4c(c3)OCO4)c2)c1=O)=C(F)F [Example 30, 1-[2-(aminomethyl)-3,3-difluoro-allyl]-4-[[3-(1,3-benzodioxol-5-yl)phenyl]methyl]tetrazol-5-one trifluoroacetate] | 1500 nM | 0.8 nM | 70900 nM | 206 nM | – |
| Cc1cc(-c2cccc(Cn3nnn(CC(CN)=C(F)F)c3=O)c2)cc2c1NC(=O)CC2 [Example 31, 6-[3-[[4-[2-(aminomethyl)-3,3-difluoro-allyl]-5-oxo-tetrazol-1-yl]methyl]phenyl]-8-methyl-3,4-dihydro-1H-quinolin-2-one trifluoroacetate] | 127 nM | 0.6 nM | 82100 nM | 9000 nM | – |
| CCn1cc(-c2cccc(Cn3nnn(CC(CN)=C(F)F)c3=O)c2)cn1 [Example 32, 1-[2-(aminomethyl)-3,3-difluoro-allyl]-4-[[3-(1-ethylpyrazol-4-yl)phenyl]methyl]tetrazol-5-one trifluoroacetate] | 811 nM | 0.4 nM | > 100000 nM | 2320 nM | – |
| CN1C(=O)CCc2cc(-c3cccc(Cn4nnn(CC(CN)=C(F)F)c4=O)c3)ccc21 [Example 33, 6-[3-[[4-[2-(aminomethyl)-3,3-difluoro-allyl]-5-oxo-tetrazol-1-yl]methyl]phenyl]-1-methyl-3,4-dihydroquinolin-2-one trifluoroacetate] | 122 nM | 0.3 nM | 81400 nM | 3990 nM | – |
| CCn1cc(-c2cccc(Cn3nnn(CC(CN)=C(F)F)c3=O)c2)ccc1=O [Example 34, 5-[3-[[4-[2-(aminomethyl)-3,3-difluoro-allyl]-5-oxo-tetrazol-1-yl]methyl]phenyl]-1-ethyl-pyridin-2-one trifluoroacetate] | 12500 nM | 0.6 nM | > 100000 nM | 53900 nM | – |
| CS(=O)(=O)c1ccc(-c2csc(-n3nnn(CC(CN)=C(F)F)c3=O)c2)cc1 [Example 35, 1-[2-(aminomethyl)-3,3-difluoro-allyl]-4-[4-(4-methylsulfonylphenyl)-2-thienyl]tetrazol-5-one trifluoroacetate] | 32200 nM | 0.4 nM | > 100000 nM | 1430 nM | – |
